Entries after “also recorded” stand apart in the source; their conditions may differ.

The source of these data is publication PMC6973020, “Quinoline‐Conjugated Ruthenacarboranes: Toward Hybrid Drugs with a Dual Mode of Action” (Chemmedchem, 2019).

A short description of data set [1]: Solubility in organic solvents (qualitative). In kind it is physicochemical.
In data set [2] the test system is murine microglial cell line BV‐2. The data set is described as follows: MTT cell viability assay, BV‐2. In kind it is cell-based, mouse. Particulars: 72 h. The source says:
(§1) Thus, care must be taken when comparing their biological activities with those of our previous studies, even with the same cell line, because the covalent vs. non‐covalent combination of drugs might imply different mechanisms of action in the cell.44 Here, we studied the in vitro activity of ruthenacarborane 3, i. e. free acid, and its 8‐hydroxyquinolyl (4) and 4‐{(7‐chloroquinolin‐4‐yl)oxy}butanol‐1‐yl (5) esters, against a panel of cancer cell lines (B16 mouse melanoma, A375 human skin melanoma, MCF‐7 human breast adenocarcinoma, LN229 human glioblastoma, U251 human glioma). Human fibroblast cell line MRC‐5, murine microglial cell line BV‐2 as well as peritoneal exudate cells (Mph), were chosen as models for non‐malignant cells. […] On the other side, we wanted to assess the reproducibility of the viability data, under either controlled (with BSA) or uncontrolled (without BSA) conditions, in two sets of independent assays. […] Cells were exposed to 3–5 for 72 h, after which cell viability was determined via 3‐(4,5‐dimethylthiazol‐2‐yl)‐2,5‐diphenyltetrazolium bromide (MTT) and crystal violet (CV) assays, in parallel (Table 2). Cisplatin was also tested as reference.
Preparation of drug solutions. […] Stock solution of cisplatin was prepared in DMF (10 mM) immediately before use. A stock solution of BSA in PBS was prepared at 1.28 mM concentration, and stored at 4 °C in the dark. […] Alternatively, 3 or 4 (DMSO stock solution) were added to the BSA solution in PBS, always with a 10 : 1 molar ratio of BSA to ruthenacarborane. […]
Colorimetric assays for cellular viability. […] The absorbance was measured with an automated microplate reader at λmax 540 nm, with the reference λmax 670 nm. Untreated cells or cells treated only with BSA (control) were also measured, as reference for BSA‐free and BSA‐containing drug formulations, respectively. […] Cell viability is expressed as percentage (%) relative to control (untreated cultures).58 Experiments were run in three independent replicates. […]
(In general: Tetrazolium dyes change colour on reduction, which living cells bring about.)

For another data set, the system named is B16 mouse melanoma. The experiment in a line: Crystal violet (CV) cell viability assay, B16. In kind it is cell-based. As to conditions: 72 h.
Description: as §1
Preparation of drug solutions. […] Stock solution of cisplatin was prepared in DMF (10 mM) immediately before use. A stock solution of BSA in PBS was prepared at 1.28 mM concentration, and stored at 4 °C in the dark. […] Alternatively, 3 or 4 (DMSO stock solution) were added to the BSA solution in PBS, always with a 10 : 1 molar ratio of BSA to ruthenacarborane. The BSA−ruthenacarborane solutions were incubated 0.5–1 h at room temperature, then diluted with cell culture medium to the desired final concentrations. Final concentrations of 3 and 4 were the same as for the BSA‐free formulation. Final DMSO was 0.02–0.5 vol %.
Colorimetric assays for cellular viability. […] For counting the number of attached (viable) cells, cells were fixed with 4 % (w/v) paraformaldehyde for 10 min at room temperature, and subsequently stained for 15 min with […] crystal violet (CV) solution. Cells were then washed with tap water, dried in air, and the CV dye was dissolved in 33 % (w/v) acetic acid solution. For the detection of mitochondrial respiration, cells were cultivated in MTT staining solution (0.5 mg mL^−1) for approximately 1 h. The dye was then discarded, and the formed formazan (purple) was dissolved in DMSO. The absorbance was measured with an automated microplate reader at λmax 540 nm, with the reference λmax 670 nm. Untreated cells or cells treated only with BSA (control) were also measured, as reference for BSA‐free and BSA‐containing drug formulations, respectively. […] Cell viability is expressed as percentage (%) relative to control (untreated cultures).58 Experiments were run in three independent replicates. […]

The nature of data set [3]: Stability in water‐containing DMSO‐d6 (NMR spectroscopy). Particulars: in air, 1H and 11B{1H} NMR, over one month. In kind it is physicochemical. Here is the method:
NMR spectroscopy. To determine the stability in biocompatible organic solvents, 3–5 (each ca. 3 mg) were dissolved in water‐containing DMSO‐d6 (0.6 mL) in air at room temperature, and periodically frozen (4–5 °C) and unfrozen. The solutions were analyzed with ^1H and ^11B{^1H} NMR spectroscopy over a period of one month.

“closo‐ [Compound 3, closo‐ [3‐(η^6‐p‐Cymene)‐1‐(CH2COOH)‐3,1,2‐RuC2B9H10]]”: the “solubility in organic solvents (in words)” value in data set [1] is “soluble in acetone, THF, acetonitrile and DMSO, moderately soluble in chloroform and dichloromethane”. Further, the figures for the IC50 (in data set [2]; with B16 mouse melanoma) were 64.7 ± 0.7 µM and 21.1 ± 2 µM, respectively. The “stability in water‐containing DMSO‐d6 solution” value in data set [3] was “stable; also recorded: sufficient chemical stability”.
For “closo ‐[3‐(η^6‐p‐Cymene)‐1‐(quinolin‐8‐yl‐acetate)‐3,1,2‐RuC2B9H10] [Compound 4]”, the “solubility in organic solvents (in words)” value in data set [1] is “soluble in dichloromethane, chloroform, acetone and DMSO”. In addition, the IC50 in data set [2] amounted to 8.7 ± 0.1 µM; in the data set on B16 mouse melanoma it was 24.5 ± 2.1 µM. For the same substance, the “stability in water‐containing DMSO‐d6 solution” value in data set [3] was “stable; also recorded: sufficient chemical stability”.

A word on the IC50: it is the concentration at which inhibition is half-maximal.
